From PMC12736086, “Synthesis and In Vitro Evaluation of Anticancer Activity of Fluorophenyl Derivatives of 1,3,4-Thiadiazole Against Estrogen-Dependent Breast Cancer” (Molecules, 2025)

How the values were obtained:
[1] = test system: MCF-7 cell line; design: method as in PMID 35335177; conditions: MCF-7, previous study; cited from earlier work
[2] = test system: MCF-7 (estrogen-dependent) breast cancer cell line; test: MTT assay, cell viability of MCF-7 cells; assay type: cell-based; conditions: Homo sapiens, MCF7, 24 h, 24 h exposure
Experimental: (§1) To investigate how the tested compounds affect cell viability, experiments were performed using two human breast cancer cell lines—MDA-MB-231 and MCF-7 and human fibroblasts—HMF (normal cells). The MDA-MB-231 cell line represents a highly invasive, triple-negative breast cancer (TNBC) model, lacking estrogen receptor (ER), progesterone receptor (PR), and HER2 expression. In contrast, MCF-7 cells are estrogen receptor-positive (ER+), less invasive, and hormone-responsive, making them a well-established model for luminal-type breast cancer and hormone therapy research. Anastrozole, an aromatase inhibitor, served as a reference drug. The MTT assay applied in this study relies on mitochondrial dehydrogenase enzymes to reduce a water-soluble […] tetrazolium salt (3-(4,5-dimethylthiazol-2-yl)-2,5-diphenyltetrazolium bromide, or MTT) into a dark blue, insoluble formazan compound. The amount of this formazan product formed is directly related to the mitochondrial activity of viable, metabolically active cells in the sample. The efficacy of the compounds was assessed based on IC50 values and analysis of the concentration-dependence of cell survival.
(§2) The experiments were conducted using MDA-MB-231 and MCF-7 human breast cancer cell lines, as well as human fibroblasts (HMF). All cell lines were sourced from the American Type Culture Collection (ATCC; Manassas, VA, USA). Cells were maintained under standard culture conditions (37 °C, 5% CO2). Breast cancer cells were grown in Dulbecco’s Modified Eagle Medium (DMEM) supplemented with 10% fetal bovine serum (FBS), while fibroblasts were cultured in Eagle’s Minimum Essential Medium (EMEM) with the same serum concentration. To prevent microbial contamination, penicillin (100 U/mL) and streptomycin (100 µg/mL) were added to the media. All cell culture reagents were obtained from Sigma Aldrich (St. Louis, MO, USA).
(§3) Cell viability was evaluated using the MTT assay kit (Sigma Aldrich, St. Louis, MO, USA). On day one of the experiment, MCF-7, MDA-MB-231 cells and human fibroblasts were seeded into 96-well culture plates (Nunc, Roskilde, Denmark) at a density of 1 × 10^5 cells/mL (human fibroblast cell line) and 5 × 10^4 cells/mL (MCF-7, MDA-MB-231 cell lines). After 24 h of incubation, the culture medium was removed and replaced with serial dilutions of test compounds or anastrozole (1, 12.5, 25, 50, 100 µM). Control wells received fresh medium only. Cells were incubated for another 24 h under standard conditions. Following this, 15 µL of MTT solution (5 mg/mL) was added to each well and incubated for 3 h. Afterward, a 10% sodium dodecyl sulfate (SDS) solution was added, and the plates were left overnight. On the following day, absorbance was measured at 570 nm using a microplate reader (Epoch, BioTek Instruments, Inc., Winooski, VT, USA) with Gen5 software (version 2.01, BioTek Instruments).
(§4) Data were analyzed using GraphPad software version 5.01 (GraphPad Software, Inc., La Jolla, CA, USA). Results are expressed as means ± standard deviation (±SD). IC50 values were calculated using the IC50 calculator provided by AAT Bioquest.

[3] = test system: MDA-MB-231 (triple-negative) breast cancer cell line; test: MTT assay, cell viability of MDA-MB-231 cells; assay type: cell-based, human; conditions: 24 h exposure
Experimental: as §1, §2, §3, §4

[4] = test system: human fibroblasts (HMF); test: MTT assay, cell viability of normal HMF fibroblasts; assay type: cell-based; conditions: Fibroblast, 24 h, 24 h exposure
Experimental: as §1, §2, §3, §4

| Compound | IC50 [1] [µM] | IC50 [2] [µM] | IC50 ([3]; Homo sapiens, MDA-MB-231, 24 h) [µM] | IC50 [4] [µM] | IC50 [3] [µM] |
| --- | --- | --- | --- | --- | --- |
| COc1cccc(-c2nnc(Nc3ccccc3C(F)(F)F)s2)c1 [2-(2-trifluoromethylphenylamino)-5-(3-methoxyphenyl)-1,3,4-thiadiazole] | 49.6 | – | – | – | – |
| Fc1cccc(-c2nnc(Nc3ccccc3I)s2)c1 [A1, 5-(3-Fluorophenyl)-2-(2-iodophenylamino)-1,3,4-thiadiazole] | – | 66 | > 100 | 51 | – |
| Fc1cccc(-c2nnc(Nc3ccccc3Br)s2)c1 [A2, 2-(2-Bromophenylamino)-5-(3-fluorophenyl)-1,3,4-thiadiazole] | – | 52.4 | > 100 | 36.5 | – |
| Fc1cccc(-c2nnc(Nc3ccccc3Cl)s2)c1 [A3, 2-(2-Chlorophenylamino)-5-(3-fluorophenyl)-1,3,4-thiadiazole] | – | 54.8 | > 100 | 36.9 | – |
| CC(C)(C#N)c1cc(Cn2cncn2)cc(C(C)(C)C#N)c1 [Anastrozole, reference compound] | – | > 100 | ≥ 100 | > 100 | > 100 |
| Fc1ccc(-c2nnc(Nc3ccccc3I)s2)cc1 [B1, 5-(4-Fluorophenyl)-2-(2-iodophenylamino)-1,3,4-thiadiazole] | – | 53.9 | > 100 | 45.6 | – |
| Fc1ccc(-c2nnc(Nc3ccccc3Br)s2)cc1 [B2, 2-(2-Bromophenylamino)-5-(4-fluorophenyl)-1,3,4-thiadiazole] | – | 82.5 | > 100 | 41.8 | – |
| Fc1ccc(-c2nnc(Nc3ccccc3Cl)s2)cc1 [B3, 2-(2-Chlorophenylamino)-5-(4-fluorophenyl)-1,3,4-thiadiazole] | – | 54.1 | > 100 | > 100 | – |
